According to US20080051365A1, “Treatment of Inflammation” (CAN-FITE BIOPHARMA LTD., priority 2004, published 2008):

How the values were obtained:
[1] = cited from earlier work
[2] = system: Adjuvant induced Arthritis (AIA) rats; assay: Adjuvant induced arthritis (AIA) in rats, arthritis clinical score; format: in vivo, rat; conditions: female Lewis rats, CF101 10 μg/kg orally twice daily from day 14, MTX 0.25 or 0.75 mg/kg intraperitoneally every 3 days from day 14, versus vehicle
Protocol: Female Lewis rats, aged 8-12 weeks were obtained from Harlan Laboratories (Jerusalem, Israel). Rats were maintained on a standardized pelleted diet and supplied with tap water. Experiments were performed in accordance with the guidelines established by the Institutional Animal Care and Use Committee at Can-Fite BioPharma, Petah Tikva, Israel. The rats were injected subcutaneously (SC) at the tail base with 100 μl of suspension composed of incomplete Freund's adjuvant (IFA) with 10 mg/ml heat killed Mycobacterium tuberculosis, (Mt) H37Ra, (Difco, Detroit, USA). Each group contained 10 animals.
Treatment with CF101 (10 μg/kg) was initiated on day 14 after vaccination and was orally administered by gavage, twice daily. Another group was treated with Methotrexate (MTX) (0.25, 0.75 mg/kg) intraperitoneally every 3 days, starting on day 14th after vaccination. The control group in each experiment received vehicle only (DMSO in a dilution corresponding to that of the drugs).
Clinical Disease Activity Score was assessed as follows: the animals were inspected every second day for clinical arthritis. […] The clinical score was calculated by adding the four individual legs' score. The inflammatory intensity was also determined in accordance with the increase in the rat hind paw's diameter, measured by caliper (Mitotoyo, Tokyo, Japan).

[3] = oral CF101, healthy young men; cited from earlier work

Row | SMILES | half life in mice [1] | disease severity evaluated by the arthritis clinical score [2] | half life in human plasma [3]
1 | CNC(=O)[C@H]1OC(n2cnc3c(NCc4cccc(I)c4)ncnc32)[C@H](O)[C@@H]1O (stereo partly drawn) [CF101, 1-deoxy-1-[6-[[(3-iodophenyl)methyl]amino]-9H-purine-9-yl]-N-methyl-D-ribofuranuronamide] | 1.5 h | significant decrease in disease severity | 8 to 10 h
2 | CN(Cc1cnc2nc(N)nc(N)c2n1)c1ccc(C(=O)N[C@@H](CCC(=O)O)C(=O)O)cc1 [MTX, Methotrexate, reference compound] | – | significant decrease in disease severity | –
